Activity calls are given as the source filed them. The calls are words filed in the database; no cut-off is given here.
Columns and labels:
[1] = Inhibition of avian influenza virus (H5N1) matrix 2 protein expressed in HEK293 cells by path clamp electrophysiology method; format: cell-based; conditions: Influenza A virus
Influenza A virus = test: Antiviral activity against Influenza A virus (A/Hong Kong/8/1968([…])) infected in MDCK cells; format: functional, organism-based
[2] = Inhibition of avian influenza virus H5N1 matrix 2 protein expressed in HEK293 cells assessed as cell viability after 24 hrs; format: cell-based; conditions: Influenza A virus, H5N1, HEK293, 24 h
HEK293 = test: Inhibition of avian influenza virus (H5N1) matrix 2 protein expressed in HEK293 cells at 50 uM by path clamp electrophysiology method; format: cell-based; conditions: Influenza A virus

Row | Compound | IC50 [1] [µM] | IC50 (Influenza A virus) [µM] | IC50 [2] [µM] | inhibition (HEK293)
1 | NC12CC3CC(CC(C3)C1)C2 [AMANTADINE] | 8.8 | 5.96 | 3.52 | inactive
2 | C[C@H]1[C@H](N)C[C@@H]2C[C@H]1C2(C)C | 4.3 | 1.36 | 5.96 | –
3 | CC(C)(C)C1CCC(N)CC1 (centres undefined) | 4.8 | 33.5 | 3.37 | –
4 | NC12CC3CC(CC1C3)C2 | 13.5 | 38.2 | 19 | –
5 | CC1(C)[C@@H]2CC[C@H](CN)[C@H]1C2 | 4.4 | 2.3 | 25.5 | –
6 | C[C@@H]1[C@@H](N)C[C@H]2C[C@@H]1C2(C)C | 6.8 | 6.02 | 23 | –

Reference: ChEMBL document CHEMBL1157777, “Identification of hits as matrix-2 protein inhibitors through the focused screening of a small primary amine library” (J Med Chem, 2010)
